Legend:
Type in all cases: physicochemical
[1] = Determination of wetting ability by immersion (modified EN 1772:2000); conditions: 0.1 wt.-% aqueous solution, room temperature, raw cotton disc, mean of five measurements
Description: This measurement was modified based on the European Standard EN 1772:2000. A 500 mL 0.1 wt.-% aqueous solution of test surfactant was prepared. The test solution was kept at room temperature to stabilize for 1 h. A raw cotton disc (30 mm diameter, wfk Testgewebe GmbH), was clamped in a gripper and immersed in the solution. Stopwatch was started at the moment when the lower part of the disc touched the solution and stopped when the disc began to sink of its own accord. The arithmetic mean of five measurements was calculated and recorded as the wetting time.

[2] = Solubility in water (observation)
[3] = Dynamic surface tension measurements, maximum bubble pressure method; conditions: deionized water, 25° C.
Description: These measurements were conducted with the Krüss PocketDyne BP2100, which utilized the maximum bubble pressure method of surface tension analysis. Surface tension profiles of dimethyl farnesyl amine oxide and diethyl farnesyl amine oxide at the desired concentration were measured in deionized water at 25° C.
The results in table 2 are given in mN/m.

[4] = CMC (critical micelle concentration) and surface tension measurements, Du Noüy ring method; conditions: 25° C., Krüss Tensiometer K 100 (Ring)
Description: CMC (critical micelle concentration) and surface tension measurements These measurements were conducted with the Krüss Tensiometer K 100 (Ring), which utilized the Du Noüy ring method. Surface tension profiles of the amine oxides were measured at 25° C.

[5] = Measurement of foam creation and decay on a SITA foam tester; conditions: 0.01 g/L surfactant solution, 1200 rpm, room temperature, 5 minutes foam creation; listed as dimethyl farnesyl amine oxide
Description: This method monitors foam generation and decay at room temperature over time. A surfactant solution of 0.01 g/L was pumped into the SITA foam tester R2000. The speed of the stirring plate was set to 1200 rpm. Foam creation was recorded in a 10 second interval for 5 minutes and decay was recorded in a 30 second interval for 15 minutes at room temperature.

Row | Compound | Wetting time [1] [s] | Surface tension at surface age 20 ms ([3]; 0.3 g/L) [mN/m] | Surface tension at surface age 50 ms ([3]; 0.3 g/L) [mN/m] | Surface tension at surface age 100 ms ([3]; 0.3 g/L) [mN/m] | Surface tension at surface age 200 ms ([3]; 0.3 g/L) [mN/m] | Surface tension at surface age 400 ms ([3]; 0.3 g/L) [mN/m] | Surface tension at surface age 20 ms ([3]; 1.0 g/L) [mN/m] | Surface tension at surface age 50 ms ([3]; 1.0 g/L) [mN/m] | Surface tension at surface age 100 ms ([3]; 1.0 g/L) [mN/m] | Surface tension at surface age 200 ms ([3]; 1.0 g/L) [mN/m] | Surface tension at surface age 400 ms ([3]; 1.0 g/L) [mN/m] | Surface tension at surface age 20 ms ([3]; 3.0 g/L) [mN/m] | Surface tension at surface age 50 ms ([3]; 3.0 g/L) [mN/m] | Surface tension at surface age 100 ms ([3]; 3.0 g/L) [mN/m] | Surface tension at surface age 200 ms ([3]; 3.0 g/L) [mN/m] | Surface tension at surface age 400 ms ([3]; 3.0 g/L) [mN/m] | also measured
1 | CC[N+]([O-])(CC)CC=C(C)CCC=C(C)CCC=C(C)C [Diethyl, Diethyl Farnesyl Amine Oxide, reference compound] | 54 | 66.7 | 65.6 | 64.3 | 65.7 | 65.0 | 60.0 | 62.0 | 57.3 | 56.0 | 54.9 | 55.2 | 52.7 | 51.8 | 50.6 | 51.6 | solubility in water [2]: very poor
2 | CC(C)=CCC/C(C)=C/CC/C(C)=C/C[N+](C)(C)[O-] [Dimethyl, Dimethyl Farnesyl Amine Oxide] | 28 | 59.9 | 56.9 | 52.9 | 51.5 | 49.5 | 43.8 | 40.7 | 39.3 | 38.1 | 36.9 | 35.3 | 33.2 | 32.5 | 32.1 | 31.5 | C20: concentration of surfactant to reduce the surface tension of water by 20 mN/m [4]: 0.018 g/L; CMC [4]: 1.09 g/L; Surface tension [4]: 28.7 mN/m; Foam ability [5]: no foam at all
